Results on 1 compound are retold here after paper PMC5218480 (PLoS ONE, 2017).

The test system of this experiment is MV-4-11 cells. Put plainly: Gene expression microarray analysis (Affymetrix PrimeView) and GSEA. Format: cell-based, human. The arrangement: RFU PODN (11730768_x_at) / Fold change /veh PODN (11730768_x_at) / RFU LINC00158 (11744669_a_at) / Fold change /veh LINC00158 (11744669_a_at) / RFU DUSP10 (11751237_a_at) / Fold change /veh DUSP10 (11751237_a_at) / RFU ID3 (11757404_x_at) / Fold change /veh ID3 (11757404_x_at) / RFU PLEKHG5 (11737974_s_at) / Fold change /veh PLEKHG5 (11737974_s_at) / RFU LRRC4B (11730491_at) / Fold change /veh LRRC4B (11730491_at) / RFU GIMAP4 (11747438_a_at) / Fold change /veh GIMAP4 (11747438_a_at) / RFU KRT8 (11758183_x_at) / Fold change /veh KRT8 (11758183_x_at) / RFU CNN1 (11734310_a_at) / Fold change /veh CNN1 (11734310_a_at) / RFU VPS37D (11726825_at) / Fold change /veh VPS37D (11726825_at) / RFU C10orf10 (11716522_x_at) / Fold change /veh C10orf10 (11716522_x_at) / RFU KIR2DL2 /// KIR2DL4 /// KIR2DL5A /// KIR2DL5B /// KIR2DS1 /// KIR2DS2 /// KIR2DS3 /// KIR2DS4 /// KIR3DL3 /// KIR3DL3 /// KIR3DS1 (11738374_at) / Fold change /veh KIR2DL2 /// KIR2DL4 /// KIR2DL5A /// KIR2DL5B /// KIR2DS1 /// KIR2DS2 /// KIR2DS3 /// KIR2DS4 /// KIR3DL3 /// KIR3DL3 /// KIR3DS1 (11738374_at) / RFU C1QL1 (11718748_at) / Fold change /veh C1QL1 (11718748_at) / RFU TMPRSS4 (11747572_a_at) / Fold change /veh TMPRSS4 (11747572_a_at) / RFU HAMP (11756126_x_at) / Fold change /veh HAMP (11756126_x_at) / RFU RNFT2 (11725882_a_at) / Fold change /veh RNFT2 (11725882_a_at) / RFU NR4A2 (11747474_a_at) / Fold change /veh NR4A2 (11747474_a_at) / RFU ABCC12 (11746883_a_at) / Fold change /veh ABCC12 (11746883_a_at) / RFU TMEM136 (11760407_x_at) / Fold change /veh TMEM136 (11760407_x_at) / RFU CLDN22 /// WWC2 (11732394_at) / Fold change /veh CLDN22 /// WWC2 (11732394_at) / RFU HLA-DPB1 (11760878_x_at) / Fold change /veh HLA-DPB1 (11760878_x_at) / RFU SPINT1 (11716480_a_at) / Fold change /veh SPINT1 (11716480_a_at) / RFU GAP43 (11754022_s_at) / Fold change /veh GAP43 (11754022_s_at) / RFU A4GNT (11735810_at) / Fold change /veh A4GNT (11735810_at) / RFU PRB3 (11715151_x_at) / Fold change /veh PRB3 (11715151_x_at) / RFU TUBB4B (11761932_at) / Fold change /veh TUBB4B (11761932_at) / RFU CAPN14 (11732068_a_at) / Fold change /veh CAPN14 (11732068_a_at) / RFU TMCC2 (11721928_a_at) / Fold change /veh TMCC2 (11721928_a_at) / RFU IRGQ (11745062_a_at) / Fold change /veh IRGQ (11745062_a_at) / RFU FAM174B (11720279_a_at) / Fold change /veh FAM174B (11720279_a_at) / RFU TMPRSS4 (11748680_a_at) / Fold change /veh TMPRSS4 (11748680_a_at) / RFU FAM212B (11763350_a_at) / Fold change /veh FAM212B (11763350_a_at) / RFU PLEKHG5 (11743358_a_at) / Fold change /veh PLEKHG5 (11743358_a_at) / RFU ZSCAN30 (11745921_a_at) / Fold change /veh ZSCAN30 (11745921_a_at) / RFU CMKLR1 (11741424_a_at) / Fold change /veh CMKLR1 (11741424_a_at) / RFU LOC101060620 /// MAPK8IP1 (11723275_at) / Fold change /veh LOC101060620 /// MAPK8IP1 (11723275_at) / RFU SPTSSB (11747773_x_at) / Fold change /veh SPTSSB (11747773_x_at) / RFU PRSS12 (11739890_at) / Fold change /veh PRSS12 (11739890_at) / RFU BIN1 (11741810_x_at) / Fold change /veh BIN1 (11741810_x_at) / RFU WNT11 (11732464_a_at) / Fold change /veh WNT11 (11732464_a_at) / RFU C10orf10 (11716521_a_at) / Fold change /veh C10orf10 (11716521_a_at) / RFU C5orf56 (11738089_at) / Fold change /veh C5orf56 (11738089_at) / RFU CYB561 (11721691_x_at) / Fold change /veh CYB561 (11721691_x_at) / RFU ANKRD19P (11752326_a_at) / Fold change /veh ANKRD19P (11752326_a_at) / RFU OR2T12 /// OR2T33 /// OR2T8 (11738714_s_at) / Fold change /veh OR2T12 /// OR2T33 /// OR2T8 (11738714_s_at) / RFU VCAN (11748164_a_at) / Fold change /veh VCAN (11748164_a_at) / RFU JSRP1 (11732532_at) / Fold change /veh JSRP1 (11732532_at) / RFU KRTAP10-11 (11738290_x_at) / Fold change /veh KRTAP10-11 (11738290_x_at) / RFU MYO3A (11730013_a_at) / Fold change /veh MYO3A (11730013_a_at) / RFU EBF3 (11725865_a_at) / Fold change /veh EBF3 (11725865_a_at) / RFU CAMK2N1 (11719241_x_at) / Fold change /veh CAMK2N1 (11719241_x_at) / RFU C5orf56 (11738088_a_at) / Fold change /veh C5orf56 (11738088_a_at) / RFU OLFML3 (11715873_a_at) / Fold change /veh OLFML3 (11715873_a_at) / RFU LOC100653217 /// NTM (11731650_a_at) / Fold change /veh LOC100653217 /// NTM (11731650_a_at) / RFU MAPK11 (11762145_a_at) / Fold change /veh MAPK11 (11762145_a_at) / RFU FIZ1 (11724087_x_at) / Fold change /veh FIZ1 (11724087_x_at) / RFU OASL (11726364_x_at) / Fold change /veh OASL (11726364_x_at) / RFU SOX15 (11748057_x_at) / Fold change /veh SOX15 (11748057_x_at) / RFU CD79A (11719716_a_at) / Fold change /veh CD79A (11719716_a_at) / RFU HIST1H1D (11736915_at) / Fold change /veh HIST1H1D (11736915_at) / RFU CASKIN2 (11723855_a_at) / Fold change /veh CASKIN2 (11723855_a_at) / RFU LOC730098 (11760151_x_at) / Fold change /veh LOC730098 (11760151_x_at) / RFU OR4N2 (11742367_at) / Fold change /veh OR4N2 (11742367_at) / RFU PRRT2 (11749266_a_at) / Fold change /veh PRRT2 (11749266_a_at) / RFU SNX32 (11753110_a_at) / Fold change /veh SNX32 (11753110_a_at) / RFU CDHR5 (11726645_a_at) / Fold change /veh CDHR5 (11726645_a_at) / RFU RCAN1 (11760418_a_at) / Fold change /veh RCAN1 (11760418_a_at) / RFU FAM167A (11723789_a_at) / Fold change /veh FAM167A (11723789_a_at) / RFU FAM26E (11764081_at) / Fold change /veh FAM26E (11764081_at) / RFU ISYNA1 (11749810_s_at) / Fold change /veh ISYNA1 (11749810_s_at) / RFU ACY1 (11761880_at) / Fold change /veh ACY1 (11761880_at) / RFU 11764098_at / Fold change /veh 11764098_at / RFU SAMD14 (11745864_x_at) / Fold change /veh SAMD14 (11745864_x_at) / RFU NPB (11741838_a_at) / Fold change /veh NPB (11741838_a_at) / RFU TMPRSS6 (11731388_a_at) / Fold change /veh TMPRSS6 (11731388_a_at) / RFU KRTAP10-2 (11738614_at) / Fold change /veh KRTAP10-2 (11738614_at) / RFU ARHGAP8 /// PRR5-ARHGAP8 (11727945_x_at) / Fold change /veh ARHGAP8 /// PRR5-ARHGAP8 (11727945_x_at) / RFU KRTAP5-7 /// NADSYN1 (11734609_at) / Fold change /veh KRTAP5-7 /// NADSYN1 (11734609_at) / RFU RASL12 (11751679_a_at) / Fold change /veh RASL12 (11751679_a_at) / RFU CDKN2B (11736163_a_at) / Fold change /veh CDKN2B (11736163_a_at) / RFU PRF1 (11729649_at) / Fold change /veh PRF1 (11729649_at) / RFU, ZNF638 /// ZNF638-IT1 / Fold change vs veh, ZNF638 /// ZNF638-IT1 / RFU, PANK3 / Fold change vs veh, PANK3 / RFU, SH3YL1 / Fold change vs veh, SH3YL1 / RFU, ZEB2 / Fold change vs veh, ZEB2 / RFU, NRIP1 / Fold change vs veh, NRIP1 / RFU, PTTG1IP / Fold change vs veh, PTTG1IP / RFU, CAPN2 / Fold change vs veh, CAPN2 / RFU, MED14 / Fold change vs veh, MED14 / RFU, SNORA58 / Fold change vs veh, SNORA58 / RFU, C1orf63 / Fold change vs veh, C1orf63 / RFU, LRRFIP1 / Fold change vs veh, LRRFIP1 / RFU, NDUFAF7 / Fold change vs veh, NDUFAF7 / RFU, SLC12A2 / Fold change vs veh, SLC12A2 / RFU, IBTK / Fold change vs veh, IBTK / RFU, ESF1 / Fold change vs veh, ESF1 / Fold change vs veh, TMEM50B / RFU, TAOK1 / Fold change vs veh, TAOK1 / RFU, ACBD3 / Fold change vs veh, ACBD3 / RFU, TMA16 / Fold change vs veh, TMA16 / RFU, RWDD3 / Fold change vs veh, RWDD3 / RFU, BCAT1 / Fold change vs veh, BCAT1 / RFU, EDEM3 / Fold change vs veh, EDEM3 / RFU, TMEM33 / Fold change vs veh, TMEM33 / RFU, WDR75 / Fold change vs veh, WDR75 / RFU, AHCTF1 / Fold change vs veh, AHCTF1 / RFU, TFRC / Fold change vs veh, TFRC / RFU, ZDHHC17 / Fold change vs veh, ZDHHC17 / RFU, NOM1 / Fold change vs veh, NOM1 / RFU, ARL8B / Fold change vs veh, ARL8B / RFU, ZBTB11 / Fold change vs veh, ZBTB11 / RFU, TAMM41 / Fold change vs veh, TAMM41 / RFU, KIAA1704 /// LOC100996395 / Fold change vs veh, KIAA1704 /// LOC100996395 / RFU, ING1 / Fold change vs veh, ING1 / RFU, TRMT61B / Fold change vs veh, TRMT61B / RFU, FUBP3 / Fold change vs veh, FUBP3 / RFU, TP53 / Fold change vs veh, TP53 / RFU, TNKS2 / Fold change vs veh, TNKS2 / RFU, ZFP14 / Fold change vs veh, ZFP14 / RFU, ACTR2 / Fold change vs veh, ACTR2 / RFU, PPP3R1 / Fold change vs veh, PPP3R1 / RFU, PIK3R1 / Fold change vs veh, PIK3R1 / RFU, HNRNPA1 / Fold change vs veh, HNRNPA1 / RFU, RNF170 / Fold change vs veh, RNF170 / RFU, ZNF28 / Fold change vs veh, ZNF28 / RFU, RNGTT / Fold change vs veh, RNGTT / RFU, OGT / Fold change vs veh, OGT / RFU, BRD1 / Fold change vs veh, BRD1 / RFU, MARS / Fold change vs veh, MARS / RFU, ZNF655 / Fold change vs veh, ZNF655 / RFU, FAHD1 / Fold change vs veh, FAHD1 / RFU, BDP1 / Fold change vs veh, BDP1 / RFU, LRRCC1 / Fold change vs veh, LRRCC1 / RFU, ARID1A / Fold change vs veh, ARID1A / RFU, ZNF146 / Fold change vs veh, ZNF146 / RFU, ZNF330 / Fold change vs veh, ZNF330 / RFU, GPN3 / Fold change vs veh, GPN3 / RFU, C9orf123 / Fold change vs veh, C9orf123 / RFU, N4BP2L2 / Fold change vs veh, N4BP2L2 / RFU, ARFIP1 / Fold change vs veh, ARFIP1 / RFU, FAM179B / Fold change vs veh, FAM179B / RFU, BCL10 / Fold change vs veh, BCL10 / RFU, UHRF1BP1L / Fold change vs veh, UHRF1BP1L / RFU, BET1 / Fold change vs veh, BET1 / RFU, CNOT2 / Fold change vs veh, CNOT2 / RFU, ZNF268 / Fold change vs veh, ZNF268 / Fold change vs veh, ZNF507 / RFU, DGCR2 / Fold change vs veh, DGCR2 / RFU, WDSUB1 / Fold change vs veh, WDSUB1 / Fold change vs veh, HSP90B1 /// MIR3652 / RFU, ADSS / Fold change vs veh, ADSS / RFU, GK / Fold change vs veh, GK / RFU, ZNF148 / Fold change vs veh, ZNF148 / RFU, TAF9 / Fold change vs veh, TAF9 / RFU, SLC1A5 / Fold change vs veh, SLC1A5 / RFU, SLMO2 / Fold change vs veh, SLMO2 / RFU, ABCC4 / Fold change vs veh, ABCC4 / RFU, LOC101060439 /// RAP1B / Fold change vs veh, LOC101060439 /// RAP1B / RFU, RFX7 / Fold change vs veh, RFX7 / RFU, GTPBP10 / Fold change vs veh, GTPBP10 / RFU, CNEP1R1 / Fold change vs veh, CNEP1R1 / RFU, BIVM-ERCC5 /// ERCC5 / Fold change vs veh, BIVM-ERCC5 /// ERCC5 / RFU, ILF3 / Fold change vs veh, ILF3 / RFU 11762660_at / Fold change /veh 11762660_at / RFU VCAN (11757783_s_at) / Fold change /veh VCAN (11757783_s_at) / RFU DDX43 (11728927_at) / Fold change /veh DDX43 (11728927_at) / RFU KRT8 (11758188_x_at) / Fold change /veh KRT8 (11758188_x_at) / RFU NKD1 (11759106_at) / Fold change /veh NKD1 (11759106_at) / RFU SRD5A1 (11742802_a_at) / Fold change /veh SRD5A1 (11742802_a_at) / RFU TPSAB1 /// TPSB2 (11721975_s_at) / Fold change /veh TPSAB1 /// TPSB2 (11721975_s_at) / RFU GSTM3 (11746129_a_at) / Fold change /veh GSTM3 (11746129_a_at) / RFU IL23R (11737362_x_at) / Fold change /veh IL23R (11737362_x_at) / RFU TMEM51 (11727254_a_at) / Fold change /veh TMEM51 (11727254_a_at) / RFU PIWIL2 (11732686_x_at) / Fold change /veh PIWIL2 (11732686_x_at) / RFU ORM1 (11744905_x_at) / Fold change /veh ORM1 (11744905_x_at) / RFU CCDC152 (11743942_at) / Fold change /veh CCDC152 (11743942_at) / RFU ECM1 (11717891_a_at) / Fold change /veh ECM1 (11717891_a_at) / RFU IL23R (11748794_a_at) / Fold change /veh IL23R (11748794_a_at) / RFU TNFAIP8L3 (11732012_x_at) / Fold change /veh TNFAIP8L3 (11732012_x_at) / RFU MBOAT4 (11741988_at) / Fold change /veh MBOAT4 (11741988_at) / RFU 11764193_at / Fold change /veh 11764193_at / RFU TMEM53 (11763286_at) / Fold change /veh TMEM53 (11763286_at) / RFU MAGEB2 (11727129_at) / Fold change /veh MAGEB2 (11727129_at) / RFU TMEM200A (11744735_a_at) / Fold change /veh TMEM200A (11744735_a_at) / RFU CCDC152 (11751479_a_at) / Fold change /veh CCDC152 (11751479_a_at) / RFU FAM211A (11726209_a_at) / Fold change /veh FAM211A (11726209_a_at) / RFU RGS16 (11746705_a_at) / Fold change /veh RGS16 (11746705_a_at) / RFU VCAN (11755009_s_at) / Fold change /veh VCAN (11755009_s_at) / RFU RHOB (11743442_s_at) / Fold change /veh RHOB (11743442_s_at) / RFU RGS16 (11720943_a_at) / Fold change /veh RGS16 (11720943_a_at) / RFU RGS16 (11720944_at) / Fold change /veh RGS16 (11720944_at) / RFU, VPS4B / Fold change vs veh, VPS4B / RFU, CREB1 / Fold change vs veh, CREB1 / RFU, DNAJC13 / Fold change vs veh, DNAJC13 / RFU, GNAQ / Fold change vs veh, GNAQ / RFU, CDK5R1 / Fold change vs veh, CDK5R1 / RFU, ZRANB3 / Fold change vs veh, ZRANB3 / RFU, CUL4A / Fold change vs veh, CUL4A / RFU, CCNY / Fold change vs veh, CCNY / RFU, UFL1 / Fold change vs veh, UFL1 / RFU, COG3 / Fold change vs veh, COG3 / RFU, DIAPH2 / Fold change vs veh, DIAPH2 / RFU, SKA2 / Fold change vs veh, SKA2 / RFU, AFF3 / Fold change vs veh, AFF3 / RFU, LMF1 / Fold change vs veh, LMF1 / RFU, IPO11 / Fold change vs veh, IPO11 / RFU, DFFB / Fold change vs veh, DFFB / RFU, FOXP1 / Fold change vs veh, FOXP1 / RFU, CARD8 / Fold change vs veh, CARD8 / RFU, STRN3 / Fold change vs veh, STRN3 / RFU, ADK / Fold change vs veh, ADK / RFU, RASSF2 / Fold change vs veh, RASSF2 / RFU, WIPF1 / Fold change vs veh, WIPF1 / RFU, LARP1B / Fold change vs veh, LARP1B / RFU, RASA1 / Fold change vs veh, RASA1 / RFU, RB1 / Fold change vs veh, RB1 / RFU, PPFIA1 / Fold change vs veh, PPFIA1 / RFU, MAT2A / Fold change vs veh, MAT2A / RFU, CCT5 / Fold change vs veh, CCT5 / RFU, WDR92 / Fold change vs veh, WDR92 / RFU, CUX1 / Fold change vs veh, CUX1 / RFU, TTC7A / Fold change vs veh, TTC7A / RFU, TMEM135 / Fold change vs veh, TMEM135 / RFU, DEPTOR / Fold change vs veh, DEPTOR / RFU, CPM / Fold change vs veh, CPM / RFU, DNAJB6 / Fold change vs veh, DNAJB6 / RFU, CACNA2D3 / Fold change vs veh, CACNA2D3 / RFU, DTX4 / Fold change vs veh, DTX4 / RFU, TFCP2 / Fold change vs veh, TFCP2 / RFU, GMCL1 /// GMCL1P1 / Fold change vs veh, GMCL1 /// GMCL1P1 / RFU, AEBP2 / Fold change vs veh, AEBP2 / RFU, SNHG1 /// SNORD22 /// SNORD25 /// SNORD26 /// SNORD27 /// SNORD28 /// SNORD29 /// SNORD31 / Fold change vs veh, SNHG1 /// SNORD22 /// SNORD25 /// SNORD26 /// SNORD27 /// SNORD28 /// SNORD29 /// SNORD31 / Fold change (Aza/veh), C12orf56 (ProbeSet 11735607_a_at) / Fold change (ACY-1035/veh), C12orf56 (ProbeSet 11735607_a_at) / Fold change (Aza/veh), FGFR1OP (ProbeSet 11751329_s_at) / Fold change (ACY-1035/veh), FGFR1OP (ProbeSet 11751329_s_at) / Fold change (Aza/veh), VPS36 (ProbeSet 11739960_a_at) / Fold change (ACY-1035/veh), VPS36 (ProbeSet 11739960_a_at) / RFU SYPL1 (11715823_x_at) / Fold change /veh SYPL1 (11715823_x_at) / RFU IGFBP7 (11715501_s_at) / Fold change /veh IGFBP7 (11715501_s_at) / RFU REEP3 (11722064_at) / Fold change /veh REEP3 (11722064_at) / RFU IGLL1 (11728026_x_at) / Fold change /veh IGLL1 (11728026_x_at): dose or concentration left out as unconfirmed. As to conditions: ProbeSet 11755159_a_at; LIST D.

With `Nc1ncn([C@@H]2O[C@H](CO)[C@@H](O)[C@H]2O)c(=O)n1` [azacitidine], the “RFU, COG3” value is recorded as 74.05 RFU.
